Where two headings read alike, the source gives them in different places.
Key:
Caco-2 cells = test: Cholesterol absorption inhibition assay (in vitro), [14C] cholesterol mixed micelles; type: cell-based; conditions: Homo sapiens, 24 hours, read-out: cholesterol absorption inhibitory activity; for inhibition at 12.5 µM: concentration of 12.5 μM; for inhibition at 10 µM: concentration of 10 μM
Experimental: This assay measures cholesterol absorption inhibitory activity by adding mixed micelles containing [^14C] cholesterol to cells and measuring cholesterol taken in the cells as oleic acid cholesteryl ester. The assay is conducted after Caco-2 cells are seeded on multi-well plates and cultured (culture medium: DMEM containing 10% fetal bovine serum, 1% non-essential amino acids, 1% penicillin, and 1% streptomycin) for 2 weeks. To each well, the micelle solution (in an amount required to provide the following final concentrations: 600 μM of sodium oleate, 50 μM of phosphatidyl choline, 5 mM of sodium taurocholate, 2.5 μM of cholesterol, and 2.5 μM of [^14C] cholesterol) and a test compound solution (in an amount required to provide the final concentration of 0.5 to 25 μM) or a solvent as a control are added, and incubation is started at 37° C. 24 hours later, the culture medium is removed, and the lipid component is extracted with hexane/2-propanol (3:2, v/v) and applied onto thin-layer silica gel plates. After drying, each plate is eluted with a mixture of hexane, diethyl ether, and acetic acid in a ratio of 83:16:1. The plates are photoexposed on imaging plates and analyzed using BAS-2500 (FUJIFILM). The amounts of light exposure of the areas corresponding to the cholesteryl ester are calculated. Background is measured using a blank space of the plate. Inhibition rates are calculated using values obtained by subtracting the background values from both values of the control and the test sample, respectively, in accordance with the following equation. A test value is calculated as a percentage (%) with respect to the control.
In the Equation 1, A is the control group, BG is a background, and B is the test compound.
The following results were obtained from the measurement by this method on cholesterol absorption inhibitory activity of the compounds of the present invention. The following results were obtained by the evaluation using concentrations of 10 μM and/or 12.5 μM.

[1] = system: hamsters fed a high cholesterol diet; test: Measurement of lipid lowering effect in hamsters fed a high cholesterol diet; type: in vivo, Male Golden Syrian hamsters; conditions: Mesocricetus auratus, po, 168 h, gavage once daily, 7 days
Experimental: Male Golden Syrian hamsters are divided into groups each consisting of 6 animals and fed a controlled high cholesterol diet (CE-2 containing 0.5% cholesterol; CLEA Japan, Inc.) for 28 days at most. From the start of feeding of the high cholesterol diet, the test compounds are administered by gavage once daily. For the administration, 0.2 mL of corn oil alone per 100 g (control group) or a solution (or suspension) of the test compound in corn oil at a dose of 0.01 to 10 mg/kg was given. At the same time, a group fed with a normal diet during the same study period is handled as a normal group. 4 hours after the last administration, whole blood is collected from the abdominal aorta under light anesthesia with ether and serum is separated from the blood. Further, livers are harvested, wet liver weights are measured, and part (about 0.5 g) of the harvested livers are extracted and weighed. 2-propanol in an amount 4 times the weight of the extracted livers are added, the resulted mixtures are homogenized, and the centrifuged supernatant are recovered and used as liver-derived samples.
Serum and liver TC concentrations are determined by an enzyme method using L-type Wako CHO•H (Wako Pure Chemical Industries Ltd.) or Cholestest CHO (Daiichi Pure Chemicals Co., Ltd.). Serum TG concentrations are determined by an enzyme method using L-type Wako TG•H (Wako Pure Chemical Industries Ltd.) or Autosera S TG-N (Daiichi Pure Chemicals Co., Ltd.) and a free glycerine elimination method. LDL-C concentrations are determined by a direct method using L-type Wako LDL-C•M (Wako Pure Chemical Industries Ltd.) or Cholestest LDL (Daiichi Pure Chemicals Co., Ltd.). Human serum was commonly used as a sample for the calibration curve for determinations of serum and liver TC concentrations, serum TG concentration, and serum LDL-C concentration. The effect of the test compound is shown by a suppression rate (%) of an increase in serum TC concentration due to feeding of the high cholesterol diet, a serum TG lowering rate (%), a suppression rate (%) of an increase in serum LDL-C concentration due to feeding of the high cholesterol diet, and a suppression rate (%) of an increase in liver TC concentration due to feeding of the high cholesterol diet calculated in accordance with the following equations.
In the Equation 2, A is the control group, B is the test compound group, and C is the normal group.
In the Equation 3, A is the control group, B is the test compound group, and C is the normal group.
In the Equation 4, A is the control group, B is the test compound group, and C is the normal group.
In the Equation 5, A is the control group, and B is the test compound group.
The following results were obtained from the study by this method on the effects of lowering serum TC, LDL-C, and TG, and liver TC in the hamsters fed with a high cholesterol diet which were given the test compounds for 7 days.
The compounds in which pyridyl of compound of example 51 and 55 was exchanged for phenyl, were used as comparative compound 1 and 2, respectively. In the same method as Example 112, the suppression rate (%) of an increase in serum TC concentration of comparative compound 1 and 2 were calculated.

[2] = read-out: serum LDL-C lowering effect (suppression rate of an increase in serum LDL-C concentration)
[3] = read-out: serum TC lowering effect (suppression rate of an increase in serum TC concentration)
[4] = read-out: serum TG lowering effect (serum TG lowering rate)
[5] = read-out: liver TC lowering effect (suppression rate of an increase in liver TC concentration)

Compound: O=C1[C@H](SC[C@H](O)c2ccc(F)cc2)[C@@H](c2ccc(O)cc2)N1c1ccc(-c2cccnc2)cc1 [Example 1, (3R,4R)-3-[(2R)-2-(4-fluorophenyl)-2-hydroxyethylthio]-4-(4-hydroxyphenyl)-1[4-(pyridin-3-yl)phenyl]azetidin-2-one]
- inhibition at 12.5 µM (Caco-2 cells): ≥ 60%

Compound: O=C1[C@H](SCCc2ccccc2)[C@@H](c2ccc(O)cc2)N1c1ccc(-c2cccnc2)cc1 [Example 4, (3R,4R)-4-(4-hydroxyphenyl)-3-(2-phenylethylthio)-1-[4-(pyridin-3-yl)phenyl]azetidin-2-one]
- inhibition at 10 µM (Caco-2 cells): ≥ 50%
- inhibition at 12.5 µM (Caco-2 cells): ≥ 60%

Compound: O=C1[C@H](SC[C@H](O)c2ccc(F)cc2)[C@@H](c2ccc(O)cc2)N1c1ccc(-c2ccncc2)cc1 [Example 11, (3R,4R)-3-[(2R)-2-(4-fluorophenyl)-2-hydroxyethylthio]-4-(4-hydroxyphenyl)-1-[4-(pyridin-4-yl)phenyl]azetidin-2-one]
- inhibition at 10 µM (Caco-2 cells): ≥ 50%

Compound: O=C1[C@H](SC[C@H](O)c2ccc(F)cc2)[C@@H](c2ccc(O)cc2)N1c1ccc(-c2cccc3[nH]ccc23)cc1 [Example 13, (3R,4R)-3-[(2R)-2-(4-fluorophenyl)-2-hydroxyethylthio]-4-(4-hydroxyphenyl)-1-[4-(indol-4-yl)phenyl]azetidin-2-one]
- inhibition at 10 µM (Caco-2 cells): ≥ 50%

Compound: COc1ccc(CS[C@H]2C(=O)N(c3ccc(-c4cccnc4)cc3)[C@@H]2c2ccc(O)cc2)cc1 [Example 19, (3R,4R)-4-(4-hydroxyphenyl)-3-[(4-methoxyphenyl)methylthio]-1-[4-(pyridin-3-yl)phenyl]azetidin-2-one]
- inhibition at 10 µM (Caco-2 cells): ≥ 50%

Compound: O=C1[C@H](SC[C@H](O)c2ccc(F)cc2)[C@@H](c2ccc(O)cc2)N1c1ccc(-c2cccnc2F)cc1 [Example 21, (3R,4R)-3-[(2R)-2-(4-fluorophenyl)-2-hydroxyethylthio]-1-[4-(2-fluoropyridin-3-yl)phenyl]-4-(4-hydroxyphenyl)azetidin-2-one]
- inhibition at 10 µM (Caco-2 cells): ≥ 50%

Compound: COc1cnccc1-c1ccc(N2C(=O)[C@H](SC[C@H](O)c3ccc(F)cc3)[C@H]2c2ccc(O)cc2)cc1 [Example 23, (3R,4R)-3-[(2R)-2-(4-fluorophenyl)-2-hydroxyethylthio]-4-(4-hydroxyphenyl)-1-[4-(3-methoxypyridin-4-yl)phenyl]azetidin-2-one]
- inhibition at 10 µM (Caco-2 cells): ≥ 50%

Compound: O=C1[C@H](SC[C@H](O)c2ccc3c(c2)OCCO3)[C@@H](c2ccc(O)cc2)N1c1ccc(-c2cccnc2)cc1 [Example 29, (3R,4R)-3-[(2R)-2-(2H,3H-benzo[3,4-e]1,4-dioxin-6-yl)-2-hydroxyethylthio]-4-(4-hydroxyphenyl)-1-[4-(pyridin-3-yl)phenyl]azetidin-2-one]
- inhibition at 10 µM (Caco-2 cells): ≥ 50%

Compound: O=C1[C@H](SC[C@H](O)c2ccc(F)cc2)[C@@H](c2ccc(O)cc2)N1c1ccc(-c2cccnc2)c(F)c1 [Example 36, (3R,4R)-3-[(2R)-2-(4-fluorophenyl)-2-hydroxyethylthio]-1-[3-fluoro-4-(pyridin-3-yl)phenyl]-4-(4-hydroxyphenyl)azetidin-2-one]
- inhibition at 10 µM (Caco-2 cells): ≥ 50%

Compound: O=C1[C@H](SC[C@H](O)c2ccc(F)cc2)[C@@H](c2ccc(O)c(O)c2)N1c1ccc(-c2cccnc2)cc1 [Example 37, (3R,4R)-3-[(2R)-2-(4-fluorophenyl)-2-hydroxyethylthio]-4-(3,4-dihydroxyphenyl)-1-[4-(pyridin-3-yl)phenyl]azetidin-2-one]
- inhibition at 10 µM (Caco-2 cells): ≥ 50%

Compound: O=C1[C@H](SC[C@H](O)c2ccc(F)cc2)[C@@H](c2ccc(O)c(Cl)c2)N1c1ccc(-c2cccnc2)cc1 [Example 39, (3R,4R)-3-[(2R)-2-(4-fluorophenyl)-2-hydroxyethylthio]-4-(3-chloro-4-hydroxyphenyl)-1-[4-(pyridin-3-yl)phenyl]azetidin-2-one]
- inhibition at 10 µM (Caco-2 cells): ≥ 50%

Compound: Cc1cc(O)ccc1[C@@H]1[C@@H](SC[C@H](O)c2ccc(F)cc2)C(=O)N1c1ccc(-c2cncnc2)cc1 [Example 100, (3R,4R)-3-[(2R)-2-(4-fluorophenyl)-2-hydroxyethylthio]-4-(4-hydroxy-2-methylphenyl)-1-[4-(pyrimidin-5-yl)phenyl]azetidin-2-one]
- inhibition in vivo at 0.1 mg/kg [1, 2]: ≥ 50%
- inhibition in vivo at 0.1 mg/kg [1, 3]: ≥ 50%
- inhibition in vivo at 0.1 mg/kg [1, 4]: ≥ 20%

Compound: COc1cc(Cl)ccc1[C@@H](O)CS[C@H]1C(=O)N(c2ccc(-c3cccnc3)cc2)[C@@H]1c1ccc(O)cc1 [Example 101, (3R,4R)-3-[(2R)-2-(4-chloro-2-methoxyphenyl)-2-hydroxyethylthio]-4-(4-hydroxyphenyl)-1-[4-(pyridin-3-yl)phenyl]azetidin-2-one]
- inhibition in vivo at 0.1 mg/kg [1, 2]: ≥ 50%
- inhibition in vivo at 0.1 mg/kg [1, 3]: ≥ 50%

Compound: Cc1cc(Cl)ccc1[C@@H](O)CS[C@H]1C(=O)N(c2ccc(-c3cccnc3)cc2)[C@@H]1c1ccc(O)cc1 [Example 102, (3R,4R)-3-[(2R)-2-(4-chloro-2-methylphenyl)-2-hydroxyethylthio]-4-(4-hydroxyphenyl)-1-[4-(pyridin-3-yl)phenyl]azetidin-2-one]
- inhibition in vivo at 0.1 mg/kg [1, 5]: ≥ 50%
- inhibition in vivo at 0.1 mg/kg [1, 2]: ≥ 50%
- inhibition in vivo at 0.1 mg/kg [1, 3]: ≥ 50%

Compound: N#Cc1ncc(-c2ccc(N3C(=O)[C@H](SC[C@H](O)c4ccc(F)cc4)[C@H]3c3ccc(O)cc3)cc2)cn1 [Example 103, 5-(4-{(3R,4R)-3-[(2R)-2-(4-fluorophenyl)-2-hydroxyethylthio]-4-(4-hydroxyphenyl)-2-oxoazetidinyl}phenyl)pyrimidine-2-carbonitrile]
- inhibition in vivo at 0.1 mg/kg [1, 4]: ≥ 20%

Compound: O=C1[C@H](SC[C@H](O)c2ccc(Cl)cc2)[C@@H](c2ccc(O)cc2)N1c1ccc(-c2cnccn2)cc1 [Example 104, (3R,4R)-3-[(2R)-2-(4-chlorophenyl)-2-hydroxyethylthio]-4-(4-hydroxyphenyl)-1-[4-(pyrazin-2-yl)phenyl]azetidin-2-one]
- inhibition in vivo at 0.01 mg/kg [1, 2]: ≥ 30%
- inhibition in vivo at 0.01 mg/kg [1, 3]: ≥ 30%
- inhibition in vivo at 0.1 mg/kg [1, 5]: ≥ 50%

Compound: CCNC(=O)c1cncc(-c2ccc(N3C(=O)[C@H](SC[C@H](O)c4ccc(Cl)cc4)[C@H]3c3ccc(O)cc3)cc2)c1 [Example 106, N-ethyl-5-(4-{(3R,4R)-3-[(2R)-2-(4-chlorophenyl)-2-hydroxyethylthio]-4-(4-hydroxyphenyl)-2-oxoazetidinyl}phenyl)pyridine-3-carboxamide]
- inhibition in vivo at 0.1 mg/kg [1, 2]: ≥ 50%
